Reference: PubChem BioAssay (NCI)
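Following 48 hours of exposure in 96-well plates, responses at five concentrations were used to interpolate endpoints linearly. The concentration for 50% growth inhibition is given as GI50. TGI is the concentration that stops growth completely.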 Where a SMILES comes first, the peptide text is derived from it. [ ]: non-standard residue; d: D form. The star is where a group is joined. Lauroyl = CCCCCCCCCCCC(=O)*; Aib = CC(C)(N)C(=O)O; βAla = NCCC(=O)O

Tests used:
Test in all cases: NCI tumour cell line growth inhibition, 48 h
[1] = tested on: K-562 leukemia
[2] = tested on: SF-295 CNS
[3] = tested on: HOP-62 NSCLC
[4] = tested on: RPMI-8226 leukemia
[5] = tested on: MDA-MB-231 breast
[6] = tested on: SF-539 CNS
[7] = tested on: IGROV1 ovarian
[8] = tested on: A498 renal
[9] = tested on: COLO 205 colon
[10] = tested on: NCI/ADR-RES ovarian
[11] = tested on: MCF7 breast
[12] = tested on: TK-10 renal
[13] = tested on: NCI-H226 lung
[14] = tested on: KM12 colon
[15] = tested on: UACC-257 melanoma
[16] = tested on: SK-MEL-28 melanoma
[17] = tested on: HCT-116 colon
[18] = tested on: PC-3 prostate
[19] = tested on: ACHN renal
[20] = tested on: HT29 colon
[21] = tested on: CCRF-CEM leukemia
[22] = tested on: OVCAR-3 ovarian
[23] = tested on: SW-620 colon
[24] = tested on: SK-OV-3 ovarian
[25] = tested on: SNB-75 CNS
[26] = tested on: MDA-MB-435
[27] = tested on: HS 578T breast
[28] = tested on: U251 CNS
[29] = tested on: T-47D breast
[30] = tested on: SF-268 CNS
[31] = tested on: LOX IMVI melanoma
[32] = tested on: OVCAR-8 ovarian
[33] = tested on: HCT-15 colon
[34] = tested on: OVCAR-5 ovarian
[35] = tested on: 786-0 renal
[36] = tested on: UACC-62 melanoma
[37] = tested on: A549 NSCLC
[38] = tested on: NCI-H23 lung
[39] = tested on: SNB-19 CNS
[40] = tested on: HCC-2998 colon
[41] = tested on: MALME-3M melanoma
[42] = tested on: NCI-H522 lung
[43] = tested on: BT-549 breast
[44] = tested on: SK-MEL-5 melanoma
[45] = tested on: NCI-H460 lung
[46] = tested on: RXF 393 renal
[47] = tested on: OVCAR-4 ovarian
[48] = tested on: CAKI-1 renal
[49] = tested on: HOP-92 NSCLC
[50] = tested on: UO-31 renal
[51] = tested on: DU-145 prostate
[52] = tested on: SR leukemia
[53] = tested on: SK-MEL-2 melanoma
[54] = tested on: SN12C renal
[55] = tested on: M14 melanoma
[56] = tested on: EKVX NSCLC
[57] = tested on: HL-60(TB) leukemia
[58] = tested on: MOLT-4 leukemia

CCCCCCCCCCCC(=O)NC(C)(C)C(=O)N1CCCC1C(=O)NC(C)(C)C(=O)NC(C)(C)C(=O)N1CCCC1C(=O)NC(C)(C)C(=O)NC(C)(C)C(=O)N1CCCC1C(=O)NC(C)C(=O)NCCC(=O)NC(C)C(=O)NC(C)(C)C(=O)NC(C)(C)C(=O)NC(C)(C)C(=O)NCCC(=O)NC(C)(C)C(=O)NC(C)(C)C(=O)NC(C)(C)C(=O)NC(C)C(=O)NCCC(=O)O (stereo unspecified) (Lauroyl-[Aib]P[Aib][Aib]P[Aib][Aib]PA[βAla]A[Aib][Aib][Aib][βAla][Aib][Aib][Aib]A[βAla]-OH; configuration not given here)
GI50 [1]: 337 nM
TGI [1]: 822 nM
GI50 [2]: 349 nM
TGI [2]: 873 nM
GI50 [3]: 325 nM
TGI [3]: 683 nM
GI50 [4]: 166 nM
TGI [4]: 561 nM
GI50 [5]: 344 nM
TGI [5]: 780 nM
GI50 [6]: 298 nM
TGI [6]: 576 nM
GI50 [7]: 377 nM
TGI [7]: 1170 nM
GI50 [8]: 375 nM
TGI [8]: 860 nM
GI50 [9]: 344 nM
TGI [9]: 721 nM
GI50 [10]: 370 nM
TGI [10]: 833 nM
GI50 [11]: 368 nM
TGI [11]: 906 nM
GI50 [12]: 388 nM
TGI [12]: 1180 nM
GI50 [13]: 435 nM
TGI [13]: 1230 nM
GI50 [14]: 478 nM
TGI [14]: 1320 nM
GI50 [15]: 387 nM
TGI [15]: 1080 nM
GI50 [16]: 437 nM
TGI [16]: 1360 nM
GI50 [17]: 300 nM
TGI [17]: 547 nM
GI50 [18]: 319 nM
TGI [18]: 689 nM
GI50 [19]: 341 nM
TGI [19]: 667 nM
GI50 [20]: 480 nM
TGI [20]: 1350 nM
GI50 [21]: 375 nM
TGI [21]: 818 nM
GI50 [22]: 444 nM
TGI [22]: 1130 nM
GI50 [23]: 400 nM
TGI [23]: 986 nM
GI50 [24]: 325 nM
TGI [24]: 623 nM
GI50 [25]: 238 nM
TGI [25]: 527 nM
GI50 [26]: 422 nM
TGI [26]: 1040 nM
GI50 [27]: 271 nM
TGI [27]: 711 nM
GI50 [28]: 254 nM
TGI [28]: 500 nM
GI50 [29]: 440 nM
TGI [29]: 1440 nM
GI50 [30]: 404 nM
TGI [30]: 1100 nM
GI50 [31]: 286 nM
TGI [31]: 535 nM
GI50 [32]: 357 nM
TGI [32]: 827 nM
GI50 [33]: 322 nM
TGI [33]: 652 nM
GI50 [34]: 467 nM
TGI [34]: 1590 nM
GI50 [35]: 280 nM
TGI [35]: 513 nM
GI50 [36]: 325 nM
TGI [36]: 724 nM
GI50 [37]: 310 nM
TGI [37]: 635 nM
GI50 [38]: 303 nM
TGI [38]: 583 nM
GI50 [39]: 423 nM
TGI [39]: 1210 nM
GI50 [40]: 533 nM
TGI [40]: 1960 nM
GI50 [41]: 346 nM
TGI [41]: 796 nM
GI50 [42]: 307 nM
TGI [42]: 621 nM
GI50 [43]: 151 nM
TGI [43]: 383 nM
GI50 [44]: 327 nM
TGI [44]: 652 nM
GI50 [45]: 310 nM
TGI [45]: 577 nM
GI50 [46]: 291 nM
TGI [46]: 527 nM
GI50 [47]: 296 nM
TGI [47]: 545 nM
GI50 [48]: 279 nM
TGI [48]: 536 nM
GI50 [49]: 238 nM
TGI [49]: 515 nM
GI50 [50]: 669 nM
TGI [50]: 1700 nM
GI50 [51]: 441 nM
TGI [51]: 1110 nM
GI50 [52]: 352 nM
TGI [52]: 884 nM
GI50 [53]: 345 nM
TGI [53]: 765 nM
GI50 [54]: 296 nM
TGI [54]: 672 nM
GI50 [55]: 387 nM
TGI [55]: 1010 nM
GI50 [56]: 349 nM
TGI [56]: 790 nM

C=C(C=O)[C@@H]1CC[C@]2(CO)CC[C@]3(C)[C@H](CC[C@@H]4[C@@]5(C)CCCNC(C)(C)[C@@H]5CC[C@]43C)[C@@H]12
GI50 [1]: 1930 nM
TGI [1]: 5440 nM
GI50 [2]: 13800 nM
TGI [2]: 27600 nM
GI50 [3]: 14600 nM
TGI [3]: 31300 nM
GI50 [4]: 2960 nM
TGI [4]: 13900 nM
GI50 [5]: 14000 nM
TGI [5]: 31500 nM
GI50 [6]: 7780 nM
TGI [6]: 20400 nM
GI50 [7]: 3340 nM
TGI [7]: 13100 nM
GI50 [8]: 570 nM
TGI [8]: 93600 nM
GI50 [9]: 12800 nM
TGI [9]: 29400 nM
GI50 [10]: 4150 nM
TGI [10]: 23000 nM
GI50 [11]: 1650 nM
TGI [11]: 5140 nM
GI50 [12]: 28500 nM
TGI [12]: 69900 nM
GI50 [13]: 5090 nM
TGI [13]: 23600 nM
GI50 [14]: 3010 nM
TGI [14]: 9330 nM
GI50 [15]: 11300 nM
TGI [15]: 31700 nM
GI50 [16]: 3150 nM
TGI [16]: 12600 nM
GI50 [17]: 1800 nM
TGI [17]: 3570 nM
GI50 [18]: 2910 nM
TGI [18]: 18800 nM
GI50 [19]: 15000 nM
TGI [19]: 31200 nM
GI50 [20]: 2310 nM
TGI [20]: 5950 nM
GI50 [21]: 2210 nM
TGI [21]: 6220 nM
GI50 [22]: 3350 nM
TGI [22]: 11900 nM
GI50 [23]: 2010 nM
TGI [23]: 5520 nM
GI50 [24]: 40000 nM
TGI [24]: > 100000 nM
GI50 [25]: 9070 nM
TGI [25]: 61800 nM
GI50 [26]: 4800 nM
TGI [26]: 18200 nM
GI50 [27]: 9640 nM
TGI [27]: 50600 nM
GI50 [28]: 4430 nM
TGI [28]: 17800 nM
GI50 [29]: 2760 nM
TGI [29]: 17900 nM
GI50 [57]: 1960 nM
TGI [57]: 4360 nM
GI50 [30]: 16100 nM
TGI [30]: 50800 nM
GI50 [31]: 1740 nM
TGI [31]: 3300 nM
GI50 [32]: 7290 nM
TGI [32]: 78800 nM
GI50 [33]: 1990 nM
TGI [33]: 7400 nM
GI50 [34]: 9720 nM
TGI [34]: 23000 nM
GI50 [35]: 14900 nM
TGI [35]: 32300 nM
GI50 [36]: 13100 nM
TGI [36]: 27900 nM
GI50 [37]: 15500 nM
TGI [37]: 46000 nM
GI50 [38]: 6160 nM
TGI [38]: 21100 nM
GI50 [39]: 8560 nM
TGI [39]: 21300 nM
GI50 [40]: 1910 nM
TGI [40]: 3670 nM
GI50 [41]: 10800 nM
TGI [41]: 26400 nM
GI50 [58]: 3640 nM
TGI [58]: 16000 nM
GI50 [43]: 8940 nM
TGI [43]: 22800 nM
GI50 [44]: 10300 nM
TGI [44]: 22300 nM
GI50 [45]: 11000 nM
TGI [45]: 25900 nM
GI50 [46]: 3830 nM
TGI [46]: 16300 nM
GI50 [47]: 6160 nM
TGI [47]: 23200 nM
GI50 [48]: 14300 nM
TGI [48]: 31800 nM
GI50 [49]: 2120 nM
TGI [49]: 7640 nM
GI50 [50]: 14900 nM
TGI [50]: 38700 nM
GI50 [51]: 7130 nM
TGI [51]: 20300 nM
GI50 [52]: 1750 nM
TGI [52]: 3740 nM
GI50 [53]: 12000 nM
TGI [53]: 27200 nM
GI50 [54]: 14000 nM
TGI [54]: 35200 nM
GI50 [55]: 7770 nM
TGI [55]: 23300 nM
GI50 [56]: 11100 nM
TGI [56]: 30800 nM
